PMC6800282, “Make the right measurement: Discovery of an allosteric inhibition site for p300-HAT” (Structural Dynamics, 2019)
“And” between values parts separate entries of the source, which are not always exact repeats. Equal values may be shown once.

What was measured:
[1] = biological target: T1, WT P300 HAT domain (Homo sapiens, UniProt Q09472); assay: p300 HAT domain SPA catalytic assay with peptide substrate; format: biochemical; conditions: for Mechanism of inhibition (excess substrate MOI tests): 10× AcCoA, 30× histone peptide; for IC50: HAT domain construct K1287-F1666
T1 construct: WT HAT construct = K1287-F1666 including the L1520-L1580 regulatory loop, expressed as HisTev fusion; HisTev (polyhistidine tag with TEV site); made in house
T1 sequence (Q09472 1287-1666): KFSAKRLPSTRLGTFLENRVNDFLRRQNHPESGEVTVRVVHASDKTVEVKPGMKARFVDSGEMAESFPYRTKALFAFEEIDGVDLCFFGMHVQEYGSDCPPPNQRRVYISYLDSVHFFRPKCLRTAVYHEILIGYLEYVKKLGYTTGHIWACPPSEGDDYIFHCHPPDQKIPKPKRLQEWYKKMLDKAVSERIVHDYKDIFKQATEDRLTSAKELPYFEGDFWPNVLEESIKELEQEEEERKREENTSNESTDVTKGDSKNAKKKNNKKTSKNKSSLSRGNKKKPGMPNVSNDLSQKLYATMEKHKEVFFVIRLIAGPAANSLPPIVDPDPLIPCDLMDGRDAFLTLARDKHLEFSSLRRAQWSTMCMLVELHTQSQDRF
Description: To identify starting points for modulating p300/CBP activity, high throughput screening was carried out using the WT P300 HAT domain (WT HAT construct = K1287-F1666 including the L1520-L1580 regulatory loop, expressed as HisTev fusion) and a peptide substrate in a catalytic assay. After extensive triage, several validated inhibitor types were identified, one of which will be the focus of this report. A more detailed description of the HTS efforts will be the subject of a forthcoming publication by Huhn et al. At this stage of the project, only the HAT domain of p300 was used, as it was not yet feasible to obtain sufficient quantities of full-length P300 (FL-P300) to conduct a high-throughput screen of >150,000 compounds.

[2] = biological target: CBP HAT (Homo sapiens, UniProt Q92793); assay: CBP HAT SPA; format: biochemical
Sequence of CBP HAT (Q92793 1323-1700 limits assumed): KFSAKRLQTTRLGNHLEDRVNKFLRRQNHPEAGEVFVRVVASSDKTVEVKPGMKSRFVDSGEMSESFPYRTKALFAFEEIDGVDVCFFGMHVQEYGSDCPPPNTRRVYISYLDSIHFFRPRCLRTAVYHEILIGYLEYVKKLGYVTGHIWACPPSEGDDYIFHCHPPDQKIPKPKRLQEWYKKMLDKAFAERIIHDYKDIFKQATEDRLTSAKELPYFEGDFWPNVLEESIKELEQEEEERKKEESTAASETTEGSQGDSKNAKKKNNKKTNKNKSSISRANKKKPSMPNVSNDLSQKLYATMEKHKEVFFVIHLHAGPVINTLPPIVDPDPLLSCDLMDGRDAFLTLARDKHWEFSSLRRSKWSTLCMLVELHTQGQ

[3] = biological target: T2, P300-HAT domain (Homo sapiens, UniProt Q09472); assay: Dynamic scanning fluorimetry (DSF); format: binding; conditions: for ΔTm at 250 µM: compound at 250 μM
T2 sequence (Q09472 1287-1666): T1 sequence (Q09472 1287-1666)
Excerpt: Additionally, given their small size, it seemed unlikely that CPI-076 and CPI-090 blocked both sites.

[4] = biological target: T3, full-length human p300 (FL-P300) (Homo sapiens, UniProt Q09472); assay: Full-length p300 SPA; format: biochemical; conditions: for Inhibition of FL enzyme: full-length P300
T3 construct: polyhistidine tag with TEV site (HisTev) (N); StrepII (C); made in house; host or cells: Sf9 insect cells (baculovirus)
T3 sequence (Q09472 whole entry): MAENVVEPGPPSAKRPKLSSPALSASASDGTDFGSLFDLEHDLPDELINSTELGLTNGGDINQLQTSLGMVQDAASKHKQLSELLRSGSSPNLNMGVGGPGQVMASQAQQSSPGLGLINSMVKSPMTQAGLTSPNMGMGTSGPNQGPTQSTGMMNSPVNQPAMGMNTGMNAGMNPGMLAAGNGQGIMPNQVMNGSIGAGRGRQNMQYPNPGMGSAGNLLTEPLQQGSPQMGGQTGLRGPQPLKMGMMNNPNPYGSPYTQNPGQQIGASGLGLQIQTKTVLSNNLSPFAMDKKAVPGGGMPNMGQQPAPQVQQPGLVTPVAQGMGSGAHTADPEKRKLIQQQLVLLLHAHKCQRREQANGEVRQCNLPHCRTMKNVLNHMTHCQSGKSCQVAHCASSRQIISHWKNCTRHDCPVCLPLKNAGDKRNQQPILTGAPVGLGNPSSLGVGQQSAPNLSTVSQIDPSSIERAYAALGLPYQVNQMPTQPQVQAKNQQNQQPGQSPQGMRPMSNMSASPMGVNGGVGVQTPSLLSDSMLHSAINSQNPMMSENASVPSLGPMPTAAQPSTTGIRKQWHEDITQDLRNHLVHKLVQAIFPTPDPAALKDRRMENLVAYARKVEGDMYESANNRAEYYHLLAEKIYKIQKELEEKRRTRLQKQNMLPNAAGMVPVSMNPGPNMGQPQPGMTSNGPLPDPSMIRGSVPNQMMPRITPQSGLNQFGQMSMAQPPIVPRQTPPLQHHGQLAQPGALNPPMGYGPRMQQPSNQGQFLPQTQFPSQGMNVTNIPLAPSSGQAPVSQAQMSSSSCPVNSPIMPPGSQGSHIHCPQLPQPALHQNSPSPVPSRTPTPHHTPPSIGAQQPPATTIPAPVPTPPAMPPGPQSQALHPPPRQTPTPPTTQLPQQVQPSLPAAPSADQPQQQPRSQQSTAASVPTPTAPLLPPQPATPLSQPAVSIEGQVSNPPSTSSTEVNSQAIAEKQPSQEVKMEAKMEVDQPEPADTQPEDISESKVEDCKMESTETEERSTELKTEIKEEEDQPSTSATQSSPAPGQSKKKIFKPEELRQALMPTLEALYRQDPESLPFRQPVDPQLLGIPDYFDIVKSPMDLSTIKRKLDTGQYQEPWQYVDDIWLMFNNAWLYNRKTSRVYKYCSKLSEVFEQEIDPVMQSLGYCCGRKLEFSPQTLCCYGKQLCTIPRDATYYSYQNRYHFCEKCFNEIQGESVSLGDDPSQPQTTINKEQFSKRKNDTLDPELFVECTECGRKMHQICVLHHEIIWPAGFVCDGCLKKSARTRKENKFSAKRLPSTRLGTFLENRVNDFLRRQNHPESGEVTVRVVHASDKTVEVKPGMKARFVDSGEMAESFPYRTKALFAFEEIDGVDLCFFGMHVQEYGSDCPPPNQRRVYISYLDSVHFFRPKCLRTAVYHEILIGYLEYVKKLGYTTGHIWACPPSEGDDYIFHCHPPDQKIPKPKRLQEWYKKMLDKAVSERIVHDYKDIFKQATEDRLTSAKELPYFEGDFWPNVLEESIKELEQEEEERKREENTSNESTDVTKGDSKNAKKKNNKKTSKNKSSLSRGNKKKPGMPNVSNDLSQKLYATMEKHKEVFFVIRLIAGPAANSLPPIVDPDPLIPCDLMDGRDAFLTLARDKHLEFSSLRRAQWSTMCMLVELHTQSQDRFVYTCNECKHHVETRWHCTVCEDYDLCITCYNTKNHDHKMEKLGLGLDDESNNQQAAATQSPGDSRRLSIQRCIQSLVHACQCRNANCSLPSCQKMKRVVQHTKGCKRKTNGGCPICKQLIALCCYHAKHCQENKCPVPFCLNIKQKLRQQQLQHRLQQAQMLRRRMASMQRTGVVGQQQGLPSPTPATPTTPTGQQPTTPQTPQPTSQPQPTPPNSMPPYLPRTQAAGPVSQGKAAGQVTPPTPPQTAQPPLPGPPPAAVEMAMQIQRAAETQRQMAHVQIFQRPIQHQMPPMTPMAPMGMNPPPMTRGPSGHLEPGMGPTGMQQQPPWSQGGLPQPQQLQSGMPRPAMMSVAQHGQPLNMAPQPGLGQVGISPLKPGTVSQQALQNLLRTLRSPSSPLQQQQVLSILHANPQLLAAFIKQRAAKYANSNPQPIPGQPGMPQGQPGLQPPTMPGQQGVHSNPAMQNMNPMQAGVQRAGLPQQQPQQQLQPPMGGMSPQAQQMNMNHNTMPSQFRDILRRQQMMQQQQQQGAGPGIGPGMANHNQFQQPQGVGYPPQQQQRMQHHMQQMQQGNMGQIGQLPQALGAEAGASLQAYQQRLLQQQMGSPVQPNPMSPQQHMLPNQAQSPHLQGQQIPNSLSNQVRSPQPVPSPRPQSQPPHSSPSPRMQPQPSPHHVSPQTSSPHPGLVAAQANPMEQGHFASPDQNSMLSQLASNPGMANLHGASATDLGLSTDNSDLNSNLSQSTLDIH
Excerpt: The sequence of 2414-residue full-length human p300 (FL-P300) was codon-optimized for insect cell expression and synthesized in three parts (Genscript). After assembly of the full-length sequence, the complete ORF was subcloned into a modified pTriEx vector (Novagen/EMD Millipore) to express FL-P300 with both an N-terminal, cleavable polyhistidine tag and C-terminal StrepII tag (HisTev-p300-Strep). Baculovirus was produced by co-transfection of the plasmid into Sf9 cells with linearized baculovirus BestBac2.0 (Expression Systems). The protein was expressed in Sf9 cells and purified with Talon Metal Affinity Resin (Clontech/Takara). The purified protein was concentrated to 1.6 mg/ml in storage buffer (50 mM Tris pH 8, 100 mM NaCl, 10% glycerol, and 0.5 mM TCEP).
At this point in the program, quantities of highly purified FL P300 were more readily available (preparation described above), and so HAT inhibitors were retested against FL P300 under optimized conditions. A large shift relative to the P300-HAT catalytic domain assay was observed.

[5] = tested on: H3K18 acetylation in HCT116 cells; assay: Inhibition of H3K18 acetylation in HCT116 cells; format: cell-based; conditions: Homo sapiens, HCT-116, read-out: H3K18Ac EC50
[6] = full-length enzyme, optimized conditions

SMILES: CC(=O)Nc1cccs1 [CPI-076]
- Mechanism of inhibition (excess substrate MOI tests) [1]: AcCoA- and peptide-modulating compounds but not wholly competitive
- IC50 [1]: 20000 nM
- IC50 [2]: 39 µM
- ΔTm at 250 µM [3]: 1.3 °C
- Inhibition of FL enzyme [4]: no measurable FL activity
- FL p300 SPA IC50 [4, 6]: Undetectable

SMILES: Cc1[nH]c2ccccc2c1-c1ncc(C(F)(F)F)cc1Cl [CPI-090]
- Mechanism of inhibition (excess substrate MOI tests) [1]: AcCoA- and peptide-modulating compounds but not wholly competitive
- IC50 [1]: 318 nM and 310 nM
- IC50 [2]: 0.74 µM
- DSF stabilization [3]: strong stabilization
- ΔTm at 250 µM [3]: 5.8 °C
- EC50 [5]: > 30 µM
- Inhibition of FL enzyme [4]: does not inhibit the FL enzyme
- IC50 [4, 6]: > 160 µM
